The test system of data set [1] is intracellular forms of T. cruzi (Tulahuen strain). The data set is described as follows: Activity against intracellular forms of T. cruzi (Tulahuen-β gal strain) in infected L929 cell lines, CPRG readout. The class given is cell-based, Trypanosoma cruzi. The note with it: for SI (Selectivity Index), intracellular forms: LC50 L929 / EC50 intracellular forms; for inhibition at 10 µM / EC50: Trypanosoma cruzi. The method, then:
The crude extracts and the resulting fractions were evaluated following a well standardized protocol of phenotypic analysis for novel drug candidates for CD [25]. The first approach was the screening against intracellular amastigotes (Tulahuen-β gal strain, DTU VI) using a fixed concentration of 10 µg/mL, which corresponds to the 90% effective concentration (EC90)value of the reference drug (Bz) for CD (Table 1). The leaves fraction using dichloromethane from Aureliana fasciculata var. fasciculata (AFfPD) sterilized T. cruzi infection in L929 cell lines, leading to 100% of infection reduction. […] Natural products from fruit pulp of C. cujete have no trypanocidal effect at a concentration of 10 µg/mL.
Culture derived trypomastigotes of Tulahuen strain (DTU VI), transfected with the β-galactosidase gene from Escherichia coli, were collected from the supernatant of previously infected L929 fibroblasts. Trypomastigotes were used to infect L929 cultures at a ratio of 10:1 (parasites/host cell) to determine activity against intracellular forms. After 2 h of interaction, the cultures were washed for the removal of remaining parasites and incubated for 48 h to ensure the establishment of the infection. On the first set of assays, the compounds were added in a fixed concentration (10 µg/mL or 10 µM for the extracts and purified fractions, respectively) that corresponds to EC90 of Bz. The non-infected cells (controls) were treated with DMSO and Bz and were also evaluated. The compounds that reached the same or higher activity than Bz were later evaluated in assays with increasing concentrations (serially diluted (7-fold): 0–50 µg/mL for extracts and fractions and 0–50 µM for purified compounds and Bz) for the determination of the EC50 and EC90 values (minimal concentration able to reduce to 50% and 90% of the infection index in cultures). In both assays the cultures were maintained at 37 °C for 96 h to enable the calculation of the inhibition percentage on the infection. Thereafter, 500 μM of substrate CPRG (chlorophenol red-β-D-galactopiranosideo) in 0.5% Nonidet P40 (Sigma-Aldrich, St. Louis, MO, United States) were added to the in vitro system. The plates were incubated for 18 h at 37 °C and, following, the absorbance was measured at 570 nm. […] All the assays were conducted in duplicate at least three times.

Data set [2] deals with bloodstream trypomastigotes of T. cruzi (Y strain). Briefly: Activity against bloodstream trypomastigotes (Y strain), light microscopy count of live parasites. The class given is cell-based, Trypanosoma cruzi. The settings on record: for SI (Selectivity Index), bloodstream trypomastigotes: LC50 cardiac cell cultures / EC50 bloodstream trypomastigotes. As to the method: In addition, the activity of both natural products was also evaluated against bloodstream trypomastigotes (BT), another relevant form of T. cruzi in mammalian hosts (Table 2). […] As cardiomyopathy is one of the main chronic symptoms of CD, next, the cardiotoxicity profile was assessed using primary cultures of mouse cardiac cells (CC) incubated with increasing concentration of both biomolecules and Bz. After […] of incubation with both extracts, no evident cardiac alterations related to cellular density and morphology was observed by light microscopy.
Bloodstream trypomastigotes (BT) of the T. cruzi Y strain (DTU II) were obtained by cardiac punction from Swiss Webster mice during the parasitemia peak and the purified parasites were resuspended in Dulbecco’s modified Eagle medium (DMEM) (Cultilab) supplemented with 10% fetal bovine serum (FBS).

The nature of another data set: in vitro. Type of data set: cell-based. The method, then:
(§1) Primary cardiac cell cultures (CC) were obtained from Swiss Webster mice embryo hearts (18 gestation days) as described by Meirelles et al. and were used for toxicity assays. After purification, the cardiac cells were seeded (0.5 × 10^5 cells/well) in 96 wells microplates previously coated with 0.01% gelatin. The cardiac cultures were maintained in Dulbecco’s Modified Eagle’s Medium supplemented with 6% of FBS, 2.5 mM CaCl2, 1 mM L-glutamine, 1mM penicillin and 2% chicken embryo extract. Mice fibroblast of the line NTCL clone 929 (L929) were used for toxicity and anti-T. cruzi activity assays. L929 cells were seeded (4 × 10^3 cells/well) in 96 well microplates and kept in RPMI-1640 medium (Sigma-Aldrich, Missouri, EUA) supplemented with 10% FBS, 1% L-glutamine and 1% penicillin. The cell cultures were maintained at 37 °C at 5% CO2.
(§2) Cell viability was assessed using PrestoBlue (for assay with CC) and AlamarBlue (for assays with L929) with fluorescence and absorbance readouts (560–590 and 570–600 nm, respectively) in a spectrophotometer (Tunable microplates reader VersaMax; Molecular Devices). Additionally, cell morphology aspects were evaluated in a light microscope, as well as the contractability, density and cytoplasmic vacuolization. Cell viability rates were then determined by the LC50 values that correspond to the compound concentration able to reduce in 50% the viability of the cell population.

The test system of the next data set is L929 cell lines. Briefly: in vitro. The class given is cell-based. The method, then:
as §1, §2

Data set [3] can be described thus: Cardiotoxicity, primary cardiac cell cultures (PrestoBlue, light microscopy). Type of data set: cell-based. The settings on record: Swiss Webster, mouse. The method, then:
as §1, §2

The test system of data set [4] is L. amazonensis infected macrophages. More on the design: method as in PMID 30513673. The note with it: cited from earlier work; for EC50: read-out: EC50 upon infected macrophages.
Data set [5] has as its system promastigotes of L. amazonensis. Further details: method as in PMID 30513673. The settings on record: cited from earlier work.
Data set [6] deals with cell-derived trypomastigotes. Further details: method as in PMID 28177047. The settings on record: cited from earlier work.
The mark [7] stands for this setting: TULAHUEN, L929, 96 h, read-out: % of Infection Reduction, 10 μM, 96 h of incubation, L929 cell line infected with Tulahuen strain.
[8] abbreviates: TULAHUEN, L929, 96 h, read-out: EC50 intracellular forms.
Setting [9] is: Trypanosoma cruzi, 2 h, read-out: EC50 bloodstream trypomastigotes, 2 h, Y strain.
[10] abbreviates: Trypanosoma cruzi, 24 h, read-out: EC50 bloodstream trypomastigotes, 24 h, Y strain.
Setting [11] is: Trypanosoma cruzi, 24 h, read-out: EC90 bloodstream trypomastigotes.
The mark [12] stands for this setting: TULAHUEN, L929, 96 h, 10 μM, 96 h of incubation, L929 cell line infected with Tulahuen strain, read-out: % of Infection Reduction.
[13] abbreviates: 96 h, Tulahuen strain, L929 host cells, read-out: EC50 intracellular forms.
Where [14] appears, read: Trypanosoma cruzi, 2 h, Y strain, read-out: EC50 bloodstream trypomastigotes.
Setting [15] is: Trypanosoma cruzi, 24 h, Y strain, read-out: EC50 bloodstream trypomastigotes.
Where [16] appears, read: Trypanosoma cruzi, 24 h, Y strain, read-out: EC90 bloodstream trypomastigotes.

In brackets after ≈: the same amount, converted by molar mass. Several values for one entry are separate records, joined by “and”; a condition that tells them apart may be missing. Equal values may be shown once. Read-outs that look alike come from different tables or passages of the source. A value given as a limit tells only on which side of the number the result lay.

Turning to `O=C(Cn1ccnc1[N+](=O)[O-])NCc1ccccc1` [Bz, Benznidazole, reference compound], the “SI (Selectivity Index), intracellular forms” value in data set [1] (96 h, µM data) is listed as >66.6; in data set [1] (96 h, μg/mL data), > 52. Also, the inhibition at 10 µM in data set [1] (setting [7]) is 92 ± 7%. The EC50 in data set [1] (setting [8]) was 3 ± 0.6 µM; in data set [1] (TULAHUEN, L929, 96 h, read-out: EC50 intracellular forms (Tulahuen strain)), 3.8 ± 1.8 µg/mL; in data set [2] (Trypanosoma cruzi, 2 h, read-out: EC50 bloodstream trypomastigotes (Y strain), 2 h), > 50 µg/mL; in data set [2] (setting [9]), > 50 µM; in data set [2] (Trypanosoma cruzi, 24 h, read-out: EC50 bloodstream trypomastigotes (Y strain), 24 h), 10.2 ± 0.3 µg/mL; in data set [2] (setting [10]), 13.1 ± 3.9 µM. In data set [1] (fixed concentration of 10 µg/mL, L929 cell lines infected with Tulahuen strain, 96 h), the “% of Infection Reduction after 96 h of Incubation” value is 90.5 ± 5.7%. The “SI (Selectivity Index), bloodstream trypomastigotes” value in data set [2] (24 h, µM data) is >57.1; in data set [2] (24 h, μg/mL data), >83. Also, the EC90 in data set [2] (Trypanosoma cruzi, 2 h, read-out: EC90 bloodstream trypomastigotes (Y strain)) is > 50 µg/mL; in data set [2] (setting [11]) it was 31.3 ± 8.8 µM; in data set [2] (Trypanosoma cruzi, 24 h, read-out: EC90 bloodstream trypomastigotes (Y strain)), 23.3 ± 0.6 µg/mL. Also, in the data set “in vitro” (mouse), the CC50 at 96 h was > 200 µg/mL and > 200 µM. For the same compound, the “LC50 L929 cell lines” value in the data set with L929 cell lines was “not toxic up to the higher tested concentration”. Further, in data set [3], the CC50 at 24 h is > 750 µg/mL and > 750 µM.

Regarding `CC(=O)O[C@@H]1CC2C3C[C@H]4O[C@]45[C@@H](O)C=CC(=O)[C@]5(C)C3CC[C@]2(C)[C@@]1(O)[C@H](C)C1CC(C)=C(C)C(=O)O1` (stereo partly shown) [Compound 1, Aurelianolide A], the “SI (Selectivity Index), intracellular forms” value in data set [1] (96 h, µM data) worked out at 9.15. Besides, the inhibition at 10 µM in data set [1] (setting [12]) was > 90%. Further, the EC50 was 4.6 ± 1.3 µM in data set [1] (setting [13]), > 50 µM in data set [2] (setting [14]), 5.68 ± 2.3 µM in data set [2] (setting [15]) and 2.3 µM in data set [4]. Also, in data set [2] (24 h, µM data), the “SI (Selectivity Index), bloodstream trypomastigotes” value is listed as 2.9. Further, in data set [2] (setting [16]), the EC90 came out at 8.33 ± 3.9 µM. This compound also came in with a CC50 at 96 h in the data set “in vitro” (mouse) of 42.1 ± 28.3 µM. Besides, the CC50 at 24 h in data set [3] was 16.4 ± 1.3 µM. Moreover, the “selectivity indexes, infected macrophages” value in data set [4] is 5.6. Also, the “activity against promastigotes of L. amazonensis” value in data set [5] is given as “active”.

As to `CC(=O)O[C@@H]1CC2C3CC=C4[C@@H](O)C=CC(=O)[C@]4(C)C3CC[C@]2(C)[C@@]1(O)[C@H](C)C1CC(C)=C(C)C(=O)O1` (stereo partly shown) [Compound 2, Aurelianolide B], in data set [1] (96 h, µM data), the “SI (Selectivity Index), intracellular forms” value is 17.1. In addition, the inhibition at 10 µM in data set [1] (setting [12]) was > 90%. Further, the EC50 was 1.6 ± 0.4 µM in data set [1] (setting [13]), > 50 µM in data set [2] (setting [14]), 5.72 ± 1.3 µM in data set [2] (setting [15]) and 6.43 µM in data set [4]. Moreover, the “SI (Selectivity Index), bloodstream trypomastigotes” value in data set [2] (24 h, µM data) turned out to be 5.4. Also, in data set [2] (setting [16]), the EC90 was found to be 9.25 ± 3.2 µM. Also, in the data set “in vitro” (mouse), the CC50 at 96 h came to 27.4 ± 1 µM. This compound returned a CC50 at 24 h in data set [3] of 30.9 ± 3.8 µM. Also, in data set [4], the “selectivity indexes, infected macrophages” value was 2.0. For the same compound, the “activity against promastigotes of L. amazonensis” value in data set [5] was “active”.

Take `C[C@H]1[C@@H](O)CCC2[C@]3(C)CC[C@@]4(C)C5CC(C)(C)CC[C@]5(C)CC[C@]4(C)C3CC[C@@]21C` (stereo partly drawn) [Compound 3, 3 beta-friedelanol]: in data set [1] (setting [12]), the inhibition at 10 µM worked out at 21 ± 10%.

On to `C[C@H]1C(=O)CC[C@@H]2[C@]1(C)CC[C@H]1[C@@]2(C)CC[C@@]2(C)[C@@H]3CC(C)(C)CC[C@]3(C)CC[C@]12C` [Compound 6, Friedelin], for which the inhibition at 10 µM in data set [1] (setting [12]) came to 0%.

Consider `COc1cc([C@H]2O[C@H](c3cc(OC)c(OC)c(OC)c3)[C@@H](C)[C@@H]2C)cc(OC)c1OC` [Compound 7, (-)-grandisin], for which the inhibition at 10 µM in data set [1] (setting [12]) was 25 ± 36%.

Consider `COc1cc(/C=C/C(=O)N2CCC=CC2=O)cc(OC)c1OC` [Compound 8, Piplartine], for which the “SI (Selectivity Index), intracellular forms” value in data set [1] (96 h, µM data) is 9. Also, in data set [1] (setting [7]), the inhibition at 10 µM is ~50%. Besides, the half-maximal effective concentration (EC50) was 8.1 ± 0.9 µM in data set [1] (setting [8]); > 50 µM in data set [2] (setting [9]); 5.4 µM in data set [2] (setting [10]); 5.38 ± 0.3 µM in data set [2] (read-out: EC50 bloodstream trypomastigotes, 24 h, Y strain). In addition, in data set [2] (24 h, µM data), the “SI (Selectivity Index), bloodstream trypomastigotes” value stood at 6.2. In addition, the EC90 in data set [2] (setting [11]) was found to be 14.4 ± 5.8 µM. Moreover, the CC50 at 96 h in “in vitro” (96 h, read-out: LC50 L929 cell lines) is 73.1 ± 75.5 µM. The CC50 at 24 h in data set [3] (24 h, read-out: LC50 cardiac cell cultures) amounted to 33.1 ± 5.9 µM.

Consider `C=CC(C)(O)CCC=C(C)C` (stereo not shown) [linalool], for which the selectivity index in data set [6] (cell-derived trypomastigotes) was 2.9. The “EC50 against cell-derived trypomastigotes” value in data set [6] was 0.31 µg/mL (≈ 2.01 µM).

On to Oleanolic acid [Compound 4], for which, in data set [1] (10 μM, 96 h of incubation, L929 cell line infected with Tulahuen strain), the “% of Infection Reduction” value is 20 ± 18%.

By EC50 is commonly meant the concentration that produces a half-maximal response. For orientation: EC90 means the point of the concentration-response curve where the effect stands at 90%.

Values taken from PMC8472459, “In Vitro Phenotypic Activity and In Silico Analysis of Natural Products from Brazilian Biodiversity on Trypanosoma cruzi” (Molecules, 2021).
